The results in this text go back to BindingDB's records for PubMed 1652050 (Seattle Veterans Affairs Medical Center, 1991).

“And” between values parts separate entries of the source, which are not always exact repeats. Equal entries are not always repeated. A value given as a limit tells only on which side of the number the result lay.

The target of this experiment is 5-hydroxytryptamine receptor 1D (Homo sapiens, UniProt P28221).
5-hydroxytryptamine receptor 1D, sequence (P28221 whole entry): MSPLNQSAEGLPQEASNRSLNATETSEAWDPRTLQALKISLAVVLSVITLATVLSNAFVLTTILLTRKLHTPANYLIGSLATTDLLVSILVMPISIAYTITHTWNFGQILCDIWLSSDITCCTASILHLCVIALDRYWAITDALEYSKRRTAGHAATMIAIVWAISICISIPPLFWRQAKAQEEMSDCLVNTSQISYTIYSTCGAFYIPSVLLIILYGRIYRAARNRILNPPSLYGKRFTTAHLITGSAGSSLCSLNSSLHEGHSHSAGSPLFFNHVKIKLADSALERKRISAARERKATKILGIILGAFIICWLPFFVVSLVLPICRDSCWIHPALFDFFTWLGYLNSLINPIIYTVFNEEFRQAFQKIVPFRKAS
`CSc1ccc2c(c1)C(N1CCN(C)CC1)Cc1ccccc1S2` (centres undefined) [methanesulfonic acid;1-methyl-4-(3-methylsulfanyl-5,6-dihydrobenzo[b][1]benzothiepin-5-yl)piperazine] came in with an inhibition constant Ki of 5.8 nM.

For `COC(=O)[C@@H]1[C@H]2C[C@H]3c4[nH]c5ccccc5c4CCN3C[C@@H]2CC[C@@H]1O` [yohimbic acid methyl ester], the Ki is 59 nM and 51 nM.

On to `Clc1cccc(N2CCNCC2)c1` [mCPP], for which the inhibition constant Ki worked out at 210 nM. `CN1CC(C(=O)N[C@]2(C)O[C@@]3(O)C4CCCN4C(=O)[C@H](Cc4ccccc4)N3C2=O)CC2c3cccc4[nH]cc(c34)CC21` (stereo partly drawn) [7-Methyl-4,6,6a,7,8,9,10,10a-octahydro-indolo[4,3-fg]quinoline-9-carboxylic acid ((2R,5S,10bS)-5-benzyl-10b-hydroxy-2-methyl-3,6-dioxo-octahydro-oxazolo[3,2-a]pyrrolo[2,1-c]pyrazin-2-yl)-amide]: the inhibition constant Ki was determined as 0.13 nM. Against the preceding compound, the Ki is about 1600-fold lower. The compound `O=C(CCCN1CCC2(CC1)C(=O)NCN2c1ccccc1)c1ccc(F)cc1` [8-[4-(4-fluorophenyl)-4-oxidanylidene-butyl]-1-phenyl-1,3,8-triazaspiro[4.5]decan-4-one] registered an inhibition constant Ki of 3100 nM. With `CC(C)(C)NCC(O)COc1cccc2[nH]c(C#N)cc12` (centres undefined) [NSC_155346] the figure was 85 nM; with `CN1C[C@@H](NS(=O)(=O)N(C)C)C[C@@H]2c3cccc4c3c(cn4C)C[C@H]21` [MESULERGINE], 1700 nM; with `CN1C2CCC1CC(OC(=O)c1c[nH]c3ccccc13)C2` (centres undefined), more than 10000 nM. With `CN1C[C@H](CNC(=O)OCc2ccccc2)C[C@@H]2c3cccc4c3c(cn4C)C[C@H]21` [METERGOLINE] the figure was 0.61 nM.

Usually Ki stands for the equilibrium dissociation constant of an inhibitor or competing ligand from its target. Low values mean higher affinity, high ones lower affinity.
